Measurements reported in article PMC6324813, “Biological evaluation of isoflavonoids from Genista halacsyi using estrogen-target cells: Activities of glucosides compared to aglycones” (PLoS ONE, 2019).
Where two headings read alike, the source gives them in different places.

Key:
ERβ [1] = target: T1, ERβ (Homo sapiens, UniProt Q92731); parameters: purchased Invitrogen; conditions: cited from earlier work
MCF-7 cells = test: MCF-7 cell proliferation (MTT); format: cell-based, human; conditions: for activation at 1 µM: Homo sapiens, MCF7, 72 h, read-out: Induction of cell proliferation (MCF-7 cells) Agonism at 1μΜ (% of 0.1nM E2); for Induction of cell proliferation (MCF-7 cells) Agonism at 1μΜ, class: compounds 1 μM, 72 h
Procedure: Test compound effects on the proliferation of MCF-7 and MDA-MB-231 cells were assessed as previously described.

ERβ [2] = target: T1, ERβ; test: ER binding competitor assay (fluorescent estrogen ES2), ERβ; parameters: purchased Invitrogen; conditions: for RBAβ / RBAα: ERβ-binding selectivity; for RBAβ: RBA = (IC50 estradiol/IC50 compound) × 100, ES2 1 nM, estradiol set equal to 100
ERβ [3] = target: T1, ERβ; test: ERE-dependent luciferase gene transcription in HEK:ERβ cells; format: cell-based; parameters: expressed in transfected cells; host or cells: HEK-293 (HEK:ERβ clone, with pERE-tk-Luciferase); conditions: for activation at 1 µM: read-out: Induction of luciferase gene transcription through ERβ, HEK:ERβ cells, Agonism at 1μΜ (% of 0.1nM E2); for ERβ-dependent gene transcription agonist effect compared to the effect of 0.1 nM estradiol: isoflavonoids 1 μM, statistically significant effects
Procedure: (§1) Assessment of ER/ERE-dependent luciferase gene transcription in MCF-7:D5L (express ERα) and HEK:ERβ cells (express ERβ) and determination of ER transcriptional agonism was carried as already described. Briefly, the cells were plated in 96-well plates at a density of 12,000 cells per well in phenol-red-free MEM (MCF-7:D5L cells) or phenol-red-free DMEM (HEK:ERβ cells) supplemented with 1 μg/mL insulin and 5% DCC-FBS. […] The AUC of the isoflavonoids of each group were then expressed as % of the AUC of the respective archetypal isoflavone. Since AUC data combine the efficacy as well as the potency of cell response into a single parameter, the %AUC data were considered here as a more reliable measure of relative ER/ERE-dependent luciferase expression of the test compounds.

ERα [4] = target: T2, ERα (Homo sapiens, UniProt P03372); test: ERE-dependent luciferase gene transcription in MCF-7:D5L cells; format: cell-based; parameters: MCF-7:D5L cells, a clone of MCF-7 cells stably transfected with an Estrogen Response Element (ERE)-endowed reporter plasmid; endogenous in cells; host or cells: MCF-7:D5L (MCF-7 clone carrying pERE-Gl-Luciferase); conditions: for Induction of ERE-dependent Luciferase Transcription (MCF-7:D5L cells) AUC (%): % of AUC of luciferase response of archetypal 3, 4, 5 or 8 up to 0.3, 10, 1.0 and 3.0 μM; for Induction of luciferase gene transcription through ERα, MCF-7:D5L cells, Agonism at 1μΜ (% of 0.1nM E2) / Induction of luciferase gene transcription, MCF-7:D5L cells, Agonism at 1μΜ, class: compounds 1 μM, 18 h; for Induction of luciferase gene transcription through ERα, MCF-7:D5L cells, Agonism at 1μΜ (% of 0.1nM E2): estradiol 0.1 nM; for Induction of ERE-dependent Luciferase Transcription (MCF-7:D5L cells) EC25E2: concentration required to achieve 25% of the effect of 0.1 nM E2; for EC50: concentration required to achieve 50% of the effect of 0.1 nM E2, read-out: Induction of ERE-dependent Luciferase Transcription (MCF-7:D5L cells) EC50E2
T2 sequence (P03372 1-595): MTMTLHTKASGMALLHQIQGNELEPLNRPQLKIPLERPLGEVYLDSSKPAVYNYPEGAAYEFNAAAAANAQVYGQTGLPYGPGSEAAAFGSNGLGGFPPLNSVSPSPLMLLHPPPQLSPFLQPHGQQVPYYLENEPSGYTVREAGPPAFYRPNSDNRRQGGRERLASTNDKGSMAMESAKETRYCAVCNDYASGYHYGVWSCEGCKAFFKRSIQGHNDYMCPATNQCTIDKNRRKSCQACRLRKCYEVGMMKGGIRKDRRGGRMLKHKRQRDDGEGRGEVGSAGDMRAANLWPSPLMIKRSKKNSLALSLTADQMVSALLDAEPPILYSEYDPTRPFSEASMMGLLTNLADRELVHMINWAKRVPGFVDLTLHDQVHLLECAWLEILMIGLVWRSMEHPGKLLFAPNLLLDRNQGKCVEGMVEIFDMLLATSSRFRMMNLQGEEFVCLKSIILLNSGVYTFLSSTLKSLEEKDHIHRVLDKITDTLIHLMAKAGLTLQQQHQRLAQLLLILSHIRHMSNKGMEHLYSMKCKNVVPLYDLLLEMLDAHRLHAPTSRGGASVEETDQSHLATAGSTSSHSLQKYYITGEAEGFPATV
Procedure: as §1

Ishikawa cells = test: Induction of AlkP expression in Ishikawa cells; format: cell-based, human; conditions: for Induction of Alkaline Phosphatase Expression (Ishikawa cells) AUC (%): % of AUC of luciferase response of archetypal 3, 4, 5 or 8 up to 0.3, 10, 1.0 and 3.0 μM; for Ratio of AUC (AlkP / Lucif): AUCAlkP / AUCluciferase; for EC (25% of 0.1 nM E2 effect) / activation at 1 µM / EC50: Homo sapiens, Ishikawa; for EC (25% of 0.1 nM E2 effect) / activation at 1 µM / Induction of AlkP expression (Ishikawa cells) Agonism at 1μΜ, class: 72 h; for EC (25% of 0.1 nM E2 effect): concentration required to achieve 25% of the effect of 0.1 nM E2, read-out: Induction of Alkaline Phosphatase Expression (Ishikawa cells) EC25E2; for activation at 1 µM: read-out: Induction of AlkP expression (Ishikawa cells) Agonism at 1μΜ (% of 0.1nM E2); for EC50: concentration required to achieve 50% of the effect of 0.1 nM E2, read-out: Induction of Alkaline Phosphatase Expression (Ishikawa cells) EC50E2; for Induction of AlkP expression (Ishikawa cells) Agonism at 1μΜ, class: compounds 1 μM
Procedure: Induction of AlkP expression of Ishikawa cells is considered as a reliable in vitro measure of estrogenic activity. Assessment of AlkP expression in Ishikawa cells was carried as already described. Briefly, the cells were plated in 96-well plates at a density of 12,000 cells per well in phenol-red-free MEM supplemented with 1 μg/mL insulin and 5% DCC-FBS. […] Data on the dependence of AlkP activity on isoflavonoid concentration were curve fitted using SigmaPlot10 (SPSS Inc) and the numerical data of curve fitting were used to determine AUC as described above, using for the calculation of AUC of a particular AlkP response the very same concentration used for the respective luciferase response. The AUC of AlkP responses of the isoflavonoids of a group were expressed as % of the AUC of the luciferase response of the respective archetypal isoflavone.

ERα [5] = target: T2, ERα; parameters: purchased Invitrogen; conditions: cited from earlier work
ERα [6] = target: T2, ERα; test: ER binding competitor assay (fluorescent estrogen ES2), ERα; parameters: purchased Invitrogen; conditions: RBA = (IC50 estradiol/IC50 compound) × 100; ES2 1 nM; estradiol set equal to 100
TNFα mRNA = conditions: 1–10 μM, ER-independent; cited from earlier work
[7] = isoflavonoids 1 μM, statistically significant effects

T1 sequence (Q92731 whole entry): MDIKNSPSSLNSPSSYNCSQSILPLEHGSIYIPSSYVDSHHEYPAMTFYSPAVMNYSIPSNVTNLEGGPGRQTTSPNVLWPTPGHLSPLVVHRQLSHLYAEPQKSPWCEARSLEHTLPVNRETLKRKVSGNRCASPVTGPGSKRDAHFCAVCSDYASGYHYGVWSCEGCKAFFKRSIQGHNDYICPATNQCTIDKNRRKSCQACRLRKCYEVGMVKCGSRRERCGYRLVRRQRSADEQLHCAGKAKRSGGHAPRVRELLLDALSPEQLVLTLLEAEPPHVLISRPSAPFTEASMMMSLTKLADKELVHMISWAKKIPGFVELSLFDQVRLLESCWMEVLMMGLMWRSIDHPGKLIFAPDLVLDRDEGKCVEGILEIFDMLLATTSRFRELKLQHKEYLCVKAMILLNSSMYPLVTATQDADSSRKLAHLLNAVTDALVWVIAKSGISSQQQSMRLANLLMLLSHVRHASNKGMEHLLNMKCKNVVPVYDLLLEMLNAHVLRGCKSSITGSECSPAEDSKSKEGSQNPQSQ

Compound | mean value (and the range) of previously reported RBAβ (ERβ [1]) | activation at 1 µM (MCF-7 cells) [%] | activation at 1 µM (ERβ [3]; 18 h) [%] | ERβ-dependent gene transcription agonist effect compared to the effect of 0.1 nM estradiol (ERβ [3]) | Induction of ERE-dependent Luciferase Transcription (MCF-7:D5L cells) AUC (%) (ERα [4]) | Induction of luciferase gene transcription through ERα, MCF-7:D5L cells, Agonism at 1μΜ (% of 0.1nM E2) (ERα [4]) | Induction of ERE-dependent Luciferase Transcription (MCF-7:D5L cells) EC25E2 (ERα [4]) [µM] | EC50 (ERα [4]) [µM] | Induction of Alkaline Phosphatase Expression (Ishikawa cells) AUC (%) (Ishikawa cells) | Ratio of AUC (AlkP / Lucif) (Ishikawa cells) | EC (25% of 0.1 nM E2 effect) (Ishikawa cells) [µM] | activation at 1 µM (Ishikawa cells) [%] | EC50 (Ishikawa cells) [µM] | mean value (and the range) of previously reported RBAα (ERα [5]) | Induction of cell proliferation (MCF-7 cells) Agonism at 1μΜ, class (MCF-7 cells) | RBAβ / RBAα (ERβ [2]) | RBAβ (ERβ [2]) | Induction of luciferase gene transcription, MCF-7:D5L cells, Agonism at 1μΜ, class (ERα [4]) | AlkP response lower than ERα-transcriptional response (relative AUC ratios) (Ishikawa cells) | RBAα (ERα [6]) | also measured
COc1ccc(-c2coc3cc(O)cc(O)c3c2=O)cc1 [Compound 1, Biochanin A] | 0.69 (0.18–1.20) | 70 ± 10 | 31 ± 15 | lower than | 33±8 | 83 ± 16 (Full) % of 0.1nM E2 | 0.16 ± 0.09 | 0.3 ± 0.03 | 26±2 | 0.79±0.04 | 0.19 ± 0.01 | 53 ± 9 | 0.42 ± 0.03 | 0.18 (0.02–0.34) | – | – | – | – | – | – | RBAβ / RBAα (ERβ [1]; ERβ-binding selectivity, ref 51 (Fokialakis et al.)): 3.83; selectivity for ERβ (class of RBAβ/RBAα) (ERβ [2]): moderate (3–10); AlkP-inducing agonist effect compared to the effect of 0.1 nM estradiol (Ishikawa cells; [7]): lower than
O=c1c(-c2ccc(O)cc2)coc2cc(O)ccc12 [Compound 5, daidzein] | 0.65 (0.04–2.11) | 59 ± 7 | – | – | 100±13 | 50 ± 12 (Partial) ^* % of 0.1nM E2 | 0.38 ± 0.07 | – | 104±19 | – | 0.46 ± 0.05 | 54 ± 4 | 1.3 ± 0.15 | 0.20 (0.01–0.55) | – | – | – | – | – | – | RBAβ (ERβ [1]; estradiol = 100, ref 27 (Halabalaki et al.)): 0.36 ± 0.09; Induction of luciferase gene transcription through ERβ, HEK:ERβ cells, Agonism at 1μΜ (% of 0.1nM E2) (ERβ [3]; compounds 1 μM, estradiol 0.1 nM, 18 h): 84 ± 8 (Full) % of 0.1nM E2; ERα-dependent gene transcription agonist effect compared to the effect of 0.1 nM estradiol (ERα [4]; [7]): lower than
COc1cc(O)cc2occ(-c3ccc(O)c(O)c3)c(=O)c12 [Compound 7, 5-O-methylorobol] | – | – | 13 ± 4 | lower than | 103±9 | – | 5.35 ± 0.61 | 9.5 ± 1.57 | 76±15 | 0.74±0.13 | 7.08 ± 0.45 | – | 11.8 ± 2.5 | – | Marginal (⩽10%) | 1.15 | 0.15 ± 0.04 | Marginal (⩽10%) | ~ 30% | 0.13 ± 0.04 | Induction of AlkP expression (Ishikawa cells) Agonism at 1μΜ, class (Ishikawa cells): Marginal (⩽10%)
O=c1c(-c2ccc(O)c(O)c2)coc2c(C3OC(CO)C(O)C(O)C3O)c(O)cc(O)c12 (centres unmarked) [Compound 9, 8-C-glucopyranosyl-orobol] | – | – | – | – | 1.6±0.3 | – | >30 | > 30 | 1.1±0.1 | 0.69±0.07 | > 30 | – | > 30 | – | Marginal (⩽10%) | 0.45 | 0.05 ± 0.01 | Marginal (⩽10%) | ~ 30% | 0.11 ± 0.03 | Induction of luciferase gene transcription, HEK:ERβ cells, Agonism at 1μΜ, class (ERβ [3]; compounds 1 μM, 18 h): Marginal (⩽10%); Induction of AlkP expression (Ishikawa cells) Agonism at 1μΜ, class (Ishikawa cells): Marginal (⩽10%)
COc1cc(-c2coc3c(C4OC(CO)C(O)C(O)C4O)c(O)cc(O)c3c2=O)ccc1O (centres unmarked) [Compound 13, 8-C-glucopyranosyl-3΄-O-methylorobol] | – | – | – | – | 77±17 | – | 2.20 ± 0.18 | 3.42 ± 0.91 | 61±11 | 0.79±0.13 | 1.01 ± 0.27 | 15 ± 4 | 2.34 ± 0.65 | – | Marginal (⩽10%) | 1.00 | 0.12 ± 0.04 | Marginal (⩽10%) | ~ 30% | 0.12 ± 0.05 | Induction of luciferase gene transcription, HEK:ERβ cells, Agonism at 1μΜ, class (ERβ [3]; compounds 1 μM, 18 h): Marginal (⩽10%)
Oc1ccc(C2COc3cc(O)ccc3C2)cc1 (centres unmarked) [equol, 4',7-isoflavandiol] | – | – | – | – | – | – | – | – | – | – | – | – | – | – | – | – | – | – | – | – | suppression of LPS-induced TNFα mRNA expression and cytokine release (TNFα mRNA): dose-dependent suppression
